For data set [1], the species on record is Homo sapiens. Put plainly: Selectivity index, ratio of IC50 for human MAO-B to IC50 for human MAO-A.
The target of data set [2] is T1, Amine oxidase [flavin-containing] B (Homo sapiens, UniProt P27338).
T1 sequence (P27338 whole entry): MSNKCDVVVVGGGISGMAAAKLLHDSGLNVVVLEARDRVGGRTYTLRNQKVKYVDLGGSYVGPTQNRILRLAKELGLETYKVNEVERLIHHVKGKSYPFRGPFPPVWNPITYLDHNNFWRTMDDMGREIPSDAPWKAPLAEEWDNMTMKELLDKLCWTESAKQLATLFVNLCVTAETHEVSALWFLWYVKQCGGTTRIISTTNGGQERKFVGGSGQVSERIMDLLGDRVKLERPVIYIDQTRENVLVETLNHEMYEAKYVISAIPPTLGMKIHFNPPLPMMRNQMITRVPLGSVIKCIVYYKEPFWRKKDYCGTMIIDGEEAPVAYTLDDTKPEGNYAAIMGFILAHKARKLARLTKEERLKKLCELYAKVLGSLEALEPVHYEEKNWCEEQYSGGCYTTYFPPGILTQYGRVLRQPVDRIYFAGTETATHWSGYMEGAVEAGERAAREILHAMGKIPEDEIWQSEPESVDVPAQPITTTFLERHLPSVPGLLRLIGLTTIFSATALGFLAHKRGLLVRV

Data set [3] addresses Acetylcholinesterase (Electrophorus electricus, UniProt O42275). Put plainly: Inhibition of electric eel AChE using acetylthiocholine iodide as substrate incubated for 6 mins prior to substrate addition measured after 60 to 180 secs by Ellman's method. (In general: In Ellman's method for cholinesterases, released thiocholine reacts with DTNB.)
For data set [4], the target named is T2, Amine oxidase [flavin-containing] A (Homo sapiens, UniProt P21397).
T2 sequence (P21397 whole entry): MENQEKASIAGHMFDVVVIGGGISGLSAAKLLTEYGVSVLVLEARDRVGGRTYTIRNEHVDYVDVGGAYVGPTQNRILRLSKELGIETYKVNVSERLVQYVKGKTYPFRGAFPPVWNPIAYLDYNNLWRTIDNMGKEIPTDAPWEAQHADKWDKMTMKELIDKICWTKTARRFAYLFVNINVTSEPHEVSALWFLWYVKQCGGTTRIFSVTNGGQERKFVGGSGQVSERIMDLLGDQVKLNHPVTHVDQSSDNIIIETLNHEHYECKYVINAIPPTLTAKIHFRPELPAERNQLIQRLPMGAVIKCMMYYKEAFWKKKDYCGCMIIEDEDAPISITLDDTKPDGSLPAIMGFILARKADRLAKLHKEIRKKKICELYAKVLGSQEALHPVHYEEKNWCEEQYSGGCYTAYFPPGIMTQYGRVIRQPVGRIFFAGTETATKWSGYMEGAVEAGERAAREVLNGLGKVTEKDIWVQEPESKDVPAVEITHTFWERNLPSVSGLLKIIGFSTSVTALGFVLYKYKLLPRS

The target in data set [5] is Cholinesterase (Equus caballus, UniProt P81908).
Chain of Cholinesterase (P81908 whole entry): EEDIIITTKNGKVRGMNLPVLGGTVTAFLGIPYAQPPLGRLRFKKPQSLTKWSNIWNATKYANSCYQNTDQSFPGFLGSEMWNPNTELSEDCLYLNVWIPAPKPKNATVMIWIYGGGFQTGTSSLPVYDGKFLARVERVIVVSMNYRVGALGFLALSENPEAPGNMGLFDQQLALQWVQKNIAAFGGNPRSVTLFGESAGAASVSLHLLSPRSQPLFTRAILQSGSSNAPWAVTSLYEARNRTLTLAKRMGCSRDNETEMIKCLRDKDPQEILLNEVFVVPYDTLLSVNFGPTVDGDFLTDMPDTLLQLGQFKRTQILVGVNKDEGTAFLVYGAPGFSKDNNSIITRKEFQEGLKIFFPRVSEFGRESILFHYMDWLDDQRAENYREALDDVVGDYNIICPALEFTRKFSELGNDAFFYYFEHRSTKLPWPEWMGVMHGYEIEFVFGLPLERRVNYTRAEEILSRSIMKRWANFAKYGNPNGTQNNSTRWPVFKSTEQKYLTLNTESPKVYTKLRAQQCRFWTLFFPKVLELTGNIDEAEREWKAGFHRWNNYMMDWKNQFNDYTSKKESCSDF
The nature of data set [6]: Cytotoxicity against human SH-SY5Y cells assessed as cell viability at 50 uM after 24 hrs by MTT assay. The following applies: read-out: Activity. The data set is classed as cell-based. (In general: Tetrazolium dyes change colour on reduction, which living cells bring about.)
Data set [7] in a line: Cytotoxicity against human SH-SY5Y cells assessed as cell viability at 25 uM after 24 hrs by MTT assay. The data set is classed as cell-based. The following applies: read-out: Activity.
A short description of data set [8]: Cytotoxicity against human SH-SY5Y cells assessed as cell viability at 10 uM after 24 hrs by MTT assay. The settings on record: read-out: Activity. The data set is classed as cell-based.
The nature of data set [9]: Cytotoxicity against human SH-SY5Y cells assessed as cell viability at 5 uM after 24 hrs by MTT assay. The data set is classed as cell-based. The following applies: read-out: Activity.
The nature of data set [10]: Cytotoxicity against human SH-SY5Y cells assessed as cell viability at 1 uM after 24 hrs by MTT assay. The data set is classed as cell-based. The settings on record: read-out: Activity.
Data set [11] concerns the target Acetylcholinesterase (Electrophorus electricus) (UniProt O42275). Put plainly: Mixed-type inhibition of electric eel AChE using acetylthiocholine iodide as substrate incubated for 15 mins prior to substrate addition by Lineweaver-Burk plot analysis.

The source made the active and inactive calls. No cut-off for these calls is given here.

Chain of Acetylcholinesterase (O42275 whole entry): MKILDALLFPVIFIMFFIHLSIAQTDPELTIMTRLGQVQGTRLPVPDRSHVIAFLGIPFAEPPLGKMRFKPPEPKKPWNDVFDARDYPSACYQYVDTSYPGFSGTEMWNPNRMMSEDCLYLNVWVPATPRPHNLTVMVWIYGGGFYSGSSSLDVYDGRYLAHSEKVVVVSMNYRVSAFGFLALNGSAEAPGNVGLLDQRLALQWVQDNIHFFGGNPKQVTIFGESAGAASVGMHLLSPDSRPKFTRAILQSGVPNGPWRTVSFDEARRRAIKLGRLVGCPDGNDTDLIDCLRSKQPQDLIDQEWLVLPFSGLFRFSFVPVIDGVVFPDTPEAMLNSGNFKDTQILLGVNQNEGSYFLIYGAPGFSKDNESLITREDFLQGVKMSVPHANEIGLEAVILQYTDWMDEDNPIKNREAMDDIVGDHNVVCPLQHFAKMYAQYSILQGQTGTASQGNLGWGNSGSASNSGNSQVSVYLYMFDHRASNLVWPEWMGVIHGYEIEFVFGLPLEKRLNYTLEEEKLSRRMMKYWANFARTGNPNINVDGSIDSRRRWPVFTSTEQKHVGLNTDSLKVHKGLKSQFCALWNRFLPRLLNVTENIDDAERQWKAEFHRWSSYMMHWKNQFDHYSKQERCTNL
Chain of Acetylcholinesterase (Electrophorus electricus) (O42275 24-633 limits assumed): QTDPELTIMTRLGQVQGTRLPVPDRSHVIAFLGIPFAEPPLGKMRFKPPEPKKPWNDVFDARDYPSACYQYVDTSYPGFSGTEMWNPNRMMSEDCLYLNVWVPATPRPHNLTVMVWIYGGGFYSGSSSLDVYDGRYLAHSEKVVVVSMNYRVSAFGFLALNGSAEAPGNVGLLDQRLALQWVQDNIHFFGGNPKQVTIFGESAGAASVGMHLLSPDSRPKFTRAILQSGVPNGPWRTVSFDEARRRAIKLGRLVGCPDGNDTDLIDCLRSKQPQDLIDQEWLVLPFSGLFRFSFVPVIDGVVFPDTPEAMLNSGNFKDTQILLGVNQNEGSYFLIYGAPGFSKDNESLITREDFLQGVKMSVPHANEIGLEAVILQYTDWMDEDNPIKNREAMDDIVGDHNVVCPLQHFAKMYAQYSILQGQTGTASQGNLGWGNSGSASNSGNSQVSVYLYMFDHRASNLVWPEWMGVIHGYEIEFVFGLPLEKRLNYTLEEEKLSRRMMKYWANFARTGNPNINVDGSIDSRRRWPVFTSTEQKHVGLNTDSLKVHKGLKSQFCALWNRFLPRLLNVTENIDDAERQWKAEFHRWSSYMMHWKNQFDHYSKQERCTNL

As to `COc1cc(/C=C/c2ccc(OCCCCCCN(C)Cc3ccccc3)cc2)cc(OC)c1`, the Ratio IC50 in [1] turned out to be 0.45. The IC50 in data set [2] came to 40.3 µM; in data set [3] it was 11.7 µM; in data set [4], 90.4 µM; in data set [5] it was 26.4 µM.
For the compound `COc1cc(/C=C/c2ccc(OCCCCN(C)Cc3ccccc3)cc2)cc(OC)c1`, in data set [1], the Ratio IC50 is under 0.35. Further, the IC50 was 34.6 µM in data set [2], 60.9 µM in [3], over 100 µM in data set [4] and 40.6 µM in data set [5].
Take `COc1cc(/C=C/c2ccc(OCCCCCCN3CCOCC3)cc2)cc(OC)c1`: the IC50 in data set [2] was over 100 µM; in data set [3], 24.4 µM; in [4] it was over 100 µM; in data set [5] it was 34.3 µM.
Regarding `COc1cc(/C=C/c2ccc(OCCCN(C)Cc3ccccc3)cc2)cc(OC)c1`, the Ratio IC50 in [1] was under 0.5. Moreover, the IC50 in data set [2] is 5.01 µM; in data set [3], 58.1 µM; in data set [4] it was over 100 µM; in data set [5], 77.3 µM.
Take `CCN(CCCCCCOc1ccc(/C=C/c2cc(OC)cc(OC)c2)cc1)Cc1ccc(OC)cc1`: the IC50 is over 100 µM in data set [2], 89.7 µM in data set [3], over 100 µM in [4] and over 100 µM in [5].
On to `Oc1ccc(/C=C/c2cc(O)cc(O)c2)cc1` [RESVERATROL], for which the IC50 worked out at 165 µM in data set [3] and 752 µM in [5].
Regarding `COc1cc(/C=C/c2ccc(OCCCCCCN(C)C)cc2)cc(OC)c1`, the Ratio IC50 in data set [1] stood at 0.2. Further, the IC50 worked out at 7.52 µM in [2], 8.19 µM in data set [3], 37.5 µM in [4] and 10.3 µM in data set [5].
On to `CCN(CCCCCCOc1ccc(/C=C/c2cc(OC)cc(OC)c2)cc1)Cc1cccc(F)c1`, for which, in data set [1], the Ratio IC50 is under 0.97. The IC50 in data set [2] is 97.5 µM; in data set [3] it was 77.8 µM; in [4], over 100 µM; in [5] it was 52 µM.
On to `COc1cc(/C=C/c2ccc(OCCCCCCN3CCCC3)cc2)cc(OC)c1`, for which, in data set [6], the viability at 24 h, 50 µM stood at 90.8%. Moreover, the viability at 24 h, 25 µM in data set [7] was 93.2%. Also, the viability at 24 h, 10 µM in data set [8] was found to be 94.4%. In addition, the viability at 24 h, 5 µM in data set [9] came to 95.6%. Also, the viability at 24 h, 1 µM in data set [10] is 97%. Further, the Ratio IC50 in data set [1] was 0.7. Moreover, the IC50 was found to be 12.2 µM in data set [2], 6.55 µM in data set [3], 17.6 µM in data set [4] and 8.04 µM in [5].
With `COc1cc(/C=C/c2ccc(OCCCCCCN3CCCCC3)cc2)cc(OC)c1`, in [1], the Ratio IC50 is 0.48. Besides, the IC50 in [2] turned out to be 14.2 µM; in data set [3], 5.02 µM; in data set [4] it was 29.8 µM; in data set [5], 10.7 µM.
Regarding `CCN(CCCCCCOc1ccc(/C=C/c2cc(OC)cc(OC)c2)cc1)Cc1ccccc1OC`, the IC50 is over 100 µM in data set [2], 54.9 µM in data set [3], over 100 µM in data set [4] and 2.27 µM in data set [5].
Consider `CCN(CCCCCCOc1ccc(/C=C/c2cc(OC)cc(OC)c2)cc1)Cc1ccccc1`, for which the Ratio IC50 in data set [1] was 0.65. The IC50 in data set [2] stood at 58.3 µM; in data set [3] it was 1.56 µM; in data set [4], 89.6 µM; in data set [5], 3.64 µM. In [11], the inhibition result was “Active”.
As for `COc1cc(/C=C/c2ccc(OCCCCCN(C)Cc3ccccc3)cc2)cc(OC)c1`, the Ratio IC50 in [1] is 0.16. Moreover, the IC50 was 16.2 µM in [2], 39.2 µM in data set [3], 97.4 µM in data set [4] and 43.7 µM in data set [5].
As to `CCN(CCCCCCOc1ccc(/C=C/c2cc(OC)cc(OC)c2)cc1)Cc1ccc(F)cc1`, the IC50 was over 100 µM in data set [2], 92.3 µM in [3], over 100 µM in data set [4] and 85.4 µM in data set [5].
On to `COc1cc(/C=C/c2ccc(OCCCCCCCCN(C)Cc3ccccc3)cc2)cc(OC)c1`, for which the IC50 was over 100 µM in data set [2], 26.5 µM in data set [3], over 100 µM in [4] and 46.8 µM in data set [5].
As for `COc1cc(/C=C/c2ccc(OCCN(C)Cc3ccccc3)cc2)cc(OC)c1`, the Ratio IC50 in [1] was under 0.89. The IC50 in [2] was 89 µM; in data set [3] it was 79.3 µM; in [4] it was over 100 µM; in data set [5], 89.6 µM.
Consider `CCN(CCCCCCOc1ccc(/C=C/c2cc(OC)cc(OC)c2)cc1)Cc1cccc(OC)c1`, for which the IC50 in data set [2] is over 100 µM; in data set [3], 71.5 µM; in data set [4], over 100 µM; in [5] it was over 100 µM.
`COc1cc(/C=C/c2ccc(OCCCCCCN3CCC(O)CC3)cc2)cc(OC)c1`: in data set [1], the Ratio IC50 was under 0.14. Further, the IC50 in data set [2] is 14.6 µM; in data set [3] it was 17.2 µM; in data set [4] it was over 100 µM; in data set [5], 23.1 µM.
With `COc1cc(/C=C/c2ccc(OCCCCCCCN(C)Cc3ccccc3)cc2)cc(OC)c1`, the Ratio IC50 in data set [1] was under 0.64. For the same compound, the IC50 in data set [2] was 63.8 µM; in data set [3], 23.4 µM; in data set [4] it was over 100 µM; in data set [5] it was 41.7 µM.
As for `COc1cc(/C=C/c2ccc(OCCCCCCN3CCCCC3C)cc2)cc(OC)c1` (stereo unspecified), the Ratio IC50 in data set [1] came out at 0.67. In addition, the IC50 in data set [2] was 16.3 µM; in [3], 4.07 µM; in data set [4] it was 24.3 µM; in data set [5], 10.1 µM.
On to `CCN(CCCCCCOc1ccc(/C=C/c2cc(OC)cc(OC)c2)cc1)Cc1ccccc1F`, for which the IC50 in data set [2] is over 100 µM; in data set [3] it was 86.6 µM; in data set [4] it was over 100 µM; in data set [5], 53 µM.
Take `CCN(CC)CCCCCCOc1ccc(/C=C/c2cc(OC)cc(OC)c2)cc1`: the Ratio IC50 in data set [1] was 0.31. The IC50 in [2] was determined as 10.1 µM; in data set [3], 4.15 µM; in [4] it was 33.1 µM; in data set [5] it was 13.2 µM.
Regarding `CCCN(CCC)CCCCCCOc1ccc(/C=C/c2cc(OC)cc(OC)c2)cc1`, the Ratio IC50 in data set [1] was 1.03. Further, the IC50 in data set [2] was determined as 92.4 µM; in data set [3] it was 12.1 µM; in data set [4], 89.4 µM; in data set [5], 7.49 µM.

One may read the IC50 as the midpoint of a concentration-inhibition curve.
